Read-outs that look alike come from different tables or passages of the source.
Assays:
CRBN-DDB1 = CRBN-DDB1 (Homo sapiens (Human), UniProt Q96SW2); assay: Compound binding to CRBN by HTRF assay
Method in brief: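 HTRF displacement of Cy5-thalidomide probe (100 nM) from His-tagged CRBN-DDB1 (2.5 nM) with anti-His terbium cryptate, in HEPES/NaCl/TCEP/EDTA/Tween20 buffer; 11-point 1:3 dilution series, 30 min at ambient temperature. Signal (665/620 nm) normalized to lenalidomide and DMSO controls; EC50 fitted, Ki by Cheng-Prusoff from geometric mean EC50.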

NEK7 = NEK7 (Homo sapiens (Human), UniProt Q8TDX7+Q96SW2); assay: NEK7 NanoBiT degradation assay in Cal51 NEK7 NanoBiT cell line; assay type: cell-based; settings: Cal51 NEK7 NanoBiT cells, 24 hours; for Dmax: CAL-51
Method in brief: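 Cal51 cells with CRISPR knock-in HiBiT-tagged endogenous NEK7 plus stable LgBiT, in live-cell Endurazine medium, seeded 16 h before dosing. Compounds at final 1 μM to 0.05 nM for 24 h at 37 °C, then luminescence read. Response normalized to plate controls and fitted with a 4-parameter logistic giving EC50.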

[1] = NEK7 degradation, read-out: NanoBiT Dmax
[2] = NEK7 degradation, read-out: NanoBiT DC50

Chain of NEK7 (Q8TDX7 whole entry): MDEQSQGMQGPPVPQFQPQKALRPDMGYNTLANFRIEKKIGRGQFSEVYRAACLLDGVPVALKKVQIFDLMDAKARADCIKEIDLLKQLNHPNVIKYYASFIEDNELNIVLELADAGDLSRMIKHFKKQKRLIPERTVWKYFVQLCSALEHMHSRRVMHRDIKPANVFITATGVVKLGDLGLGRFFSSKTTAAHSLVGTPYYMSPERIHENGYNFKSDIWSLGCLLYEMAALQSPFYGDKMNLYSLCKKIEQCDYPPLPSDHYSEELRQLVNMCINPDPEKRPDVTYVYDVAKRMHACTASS
Chain of NEK7 (Q96SW2 whole entry): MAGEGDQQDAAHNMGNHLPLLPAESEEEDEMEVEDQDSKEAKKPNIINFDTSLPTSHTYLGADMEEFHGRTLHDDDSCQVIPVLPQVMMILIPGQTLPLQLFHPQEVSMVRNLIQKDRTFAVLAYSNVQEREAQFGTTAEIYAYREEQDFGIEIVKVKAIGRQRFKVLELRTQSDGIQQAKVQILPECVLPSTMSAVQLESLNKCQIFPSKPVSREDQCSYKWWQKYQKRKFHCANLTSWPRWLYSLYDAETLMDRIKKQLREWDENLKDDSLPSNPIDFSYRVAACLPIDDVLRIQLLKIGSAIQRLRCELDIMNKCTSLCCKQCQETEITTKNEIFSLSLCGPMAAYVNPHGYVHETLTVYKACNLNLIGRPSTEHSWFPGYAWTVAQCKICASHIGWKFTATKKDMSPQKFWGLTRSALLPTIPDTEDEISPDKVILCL
Chain of NEK7 (Q16531 2-1140 partner): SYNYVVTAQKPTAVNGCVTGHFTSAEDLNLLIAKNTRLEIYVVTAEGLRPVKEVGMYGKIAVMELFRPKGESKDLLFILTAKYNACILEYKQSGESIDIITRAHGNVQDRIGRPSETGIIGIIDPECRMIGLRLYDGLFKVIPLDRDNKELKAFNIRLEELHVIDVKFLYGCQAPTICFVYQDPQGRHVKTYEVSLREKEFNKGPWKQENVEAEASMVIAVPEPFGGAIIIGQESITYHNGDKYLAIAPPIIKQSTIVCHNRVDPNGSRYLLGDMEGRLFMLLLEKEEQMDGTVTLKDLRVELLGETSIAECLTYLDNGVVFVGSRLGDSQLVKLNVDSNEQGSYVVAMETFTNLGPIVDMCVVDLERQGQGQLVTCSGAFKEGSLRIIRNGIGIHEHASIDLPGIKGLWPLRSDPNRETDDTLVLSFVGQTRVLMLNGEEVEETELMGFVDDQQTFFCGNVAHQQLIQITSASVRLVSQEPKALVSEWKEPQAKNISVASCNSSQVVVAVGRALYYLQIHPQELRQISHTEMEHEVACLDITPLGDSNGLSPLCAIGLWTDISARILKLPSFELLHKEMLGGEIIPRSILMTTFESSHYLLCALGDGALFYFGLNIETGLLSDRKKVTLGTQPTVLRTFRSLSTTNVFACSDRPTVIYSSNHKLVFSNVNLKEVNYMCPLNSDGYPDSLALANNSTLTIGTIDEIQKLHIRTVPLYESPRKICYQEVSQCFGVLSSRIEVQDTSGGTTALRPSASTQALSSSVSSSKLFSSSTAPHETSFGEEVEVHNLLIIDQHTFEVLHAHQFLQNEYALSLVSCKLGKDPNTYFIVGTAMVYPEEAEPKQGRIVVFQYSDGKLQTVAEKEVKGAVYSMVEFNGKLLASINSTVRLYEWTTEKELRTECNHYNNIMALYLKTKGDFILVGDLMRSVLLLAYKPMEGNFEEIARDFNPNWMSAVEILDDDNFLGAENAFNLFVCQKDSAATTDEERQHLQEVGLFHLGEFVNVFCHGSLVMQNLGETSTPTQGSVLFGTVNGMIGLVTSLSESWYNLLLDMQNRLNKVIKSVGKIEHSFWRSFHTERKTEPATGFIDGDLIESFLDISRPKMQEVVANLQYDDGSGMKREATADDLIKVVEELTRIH
Chain of CRBN-DDB1 (Q96SW2 whole entry): as the sequence (Q96SW2 whole entry) above
Chain of CRBN-DDB1 (Q16531 whole entry partner): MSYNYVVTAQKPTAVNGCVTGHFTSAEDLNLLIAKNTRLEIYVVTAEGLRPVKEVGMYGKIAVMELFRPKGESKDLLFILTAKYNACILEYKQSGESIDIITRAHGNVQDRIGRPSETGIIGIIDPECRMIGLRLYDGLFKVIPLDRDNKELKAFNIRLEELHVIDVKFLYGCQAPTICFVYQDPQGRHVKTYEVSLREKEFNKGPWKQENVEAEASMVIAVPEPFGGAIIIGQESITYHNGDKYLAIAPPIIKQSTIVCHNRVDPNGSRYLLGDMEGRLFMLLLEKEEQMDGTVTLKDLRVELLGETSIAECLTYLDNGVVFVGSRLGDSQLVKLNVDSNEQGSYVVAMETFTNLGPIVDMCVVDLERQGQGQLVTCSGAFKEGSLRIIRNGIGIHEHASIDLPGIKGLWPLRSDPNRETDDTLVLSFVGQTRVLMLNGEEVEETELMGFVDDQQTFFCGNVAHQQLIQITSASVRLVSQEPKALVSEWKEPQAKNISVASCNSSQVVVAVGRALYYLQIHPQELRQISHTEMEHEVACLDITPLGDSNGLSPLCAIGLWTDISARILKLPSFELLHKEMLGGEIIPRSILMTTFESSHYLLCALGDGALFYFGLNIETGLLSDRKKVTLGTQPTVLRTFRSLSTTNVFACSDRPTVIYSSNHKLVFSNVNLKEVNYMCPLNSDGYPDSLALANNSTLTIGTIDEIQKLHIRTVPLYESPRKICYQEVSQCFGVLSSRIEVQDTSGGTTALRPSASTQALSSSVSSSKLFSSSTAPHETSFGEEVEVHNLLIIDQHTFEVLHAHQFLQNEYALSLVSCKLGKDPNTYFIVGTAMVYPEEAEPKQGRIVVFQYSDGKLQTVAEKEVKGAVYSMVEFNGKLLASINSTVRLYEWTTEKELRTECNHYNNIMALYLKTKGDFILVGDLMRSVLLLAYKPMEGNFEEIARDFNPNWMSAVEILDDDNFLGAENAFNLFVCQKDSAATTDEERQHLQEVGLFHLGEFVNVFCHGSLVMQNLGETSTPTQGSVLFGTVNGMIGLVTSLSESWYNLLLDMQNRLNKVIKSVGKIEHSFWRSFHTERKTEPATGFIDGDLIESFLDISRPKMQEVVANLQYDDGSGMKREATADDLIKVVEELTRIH

Row | Structure (SMILES) | EC50 (CRBN-DDB1) [µM] | EC50 (CRBN-DDB1; HTRF class, Cereblon binding) [µM] | Dmax (NEK7; read-out: NEK7 NanoBiT Dmax) [%] | Dmax (NEK7; [1]) [%] | DC50 (NEK7; read-out: NEK7 NanoBiT DC50) [µM] | DC50 (NEK7; [2]) [µM]
1 | Cn1ccc(C2(C(=O)NCc3cc(Cl)c(C4CCC(=O)NC4=O)c(Cl)c3)CCC2)cc1=O (stereo not drawn) [Compound 177] | 0.55 | 0.1 to 1 | 85 | > 75 | 0.053 | ≤ 0.1
2 | CC(C)(C(=O)NCc1cc(Cl)c(C2CCC(=O)NC2=O)c(Cl)c1)c1ncc(C2COC2)cn1 (stereo not drawn) [Compound 178] | 0.29 | 0.1 to 1 | 66 | 50 to 75 | 0.095 | ≤ 0.1
3 | CC(C)(C(=O)NCc1cc(Cl)c(C2CCC(=O)NC2=O)c(Cl)c1)c1nccc(C(F)F)n1 (stereo not drawn) [Compound 182] | 0.2 | 0.1 to 1 | 72 | 50 to 75 | 0.054 | ≤ 0.1
4 | COCc1cnc(C(C)(C)C(=O)NCc2cc(Cl)c(C3CCC(=O)NC3=O)c(Cl)c2)nc1 (stereo not drawn) [Compound 183] | 0.37 | 0.1 to 1 | 71 | 50 to 75 | 0.056 | ≤ 0.1
5 | CC(C)(C(=O)NCc1cc(Cl)c(C2CCC(=O)NC2=O)c(Cl)c1)c1ccc2ncoc2n1 (stereo not drawn) [Compound 184] | 0.18 | 0.1 to 1 | 95 | > 75 | 0.003 | ≤ 0.1
6 | CC(C)(C(=O)NCc1cc(Cl)c(C2CCC(=O)NC2=O)c(Cl)c1)c1cc(C2CC2)on1 (stereo not drawn) [Compound 185] | 0.22 | 0.1 to 1 | 83 | > 75 | 0.015 | ≤ 0.1
7 | CC(C)(C(=O)NCc1cc(Cl)c(C2CCC(=O)NC2=O)c(Cl)c1)c1ccc(C(F)(F)F)nn1 (stereo not drawn) [Compound 191] | 0.17 | 0.1 to 1 | 85 | > 75 | 0.013 | ≤ 0.1
8 | CC(C)(C(=O)NCc1cc(Cl)c(C2CCC(=O)NC2=O)c(Cl)c1)c1ncc(Cl)cn1 (stereo not drawn) [Compound 194] | 0.12 | 0.1 to 1 | 96 | > 75 | 0.001 | ≤ 0.1
9 | CC(C)(C(=O)NCc1cc(Cl)c(C2CCC(=O)NC2=O)c(Cl)c1)c1ncc(CC(F)(F)F)cn1 (stereo not drawn) [Compound 195] | 0.22 | 0.1 to 1 | 63 | 50 to 75 | 0.138 | 0.1 to 1
10 | CC(C)(C(=O)NCc1cc(Cl)c(C2CCC(=O)NC2=O)c(Cl)c1)c1cnc(C(F)F)cn1 (stereo not drawn) [Compound 196] | 0.31 | 0.1 to 1 | 90 | > 75 | 0.009 | ≤ 0.1
11 | Cc1coc(C(C)(C)C(=O)NCc2cc(Cl)c(C3CCC(=O)NC3=O)c(Cl)c2)n1 (stereo not drawn) [Compound 197] | 0.12 | 0.1 to 1 | 87 | > 75 | 0.013 | ≤ 0.1
12 | CC(C)(C(=O)NCc1cc(Cl)c(C2CCC(=O)NC2=O)c(Cl)c1)c1nocc1C1CC1 (stereo not drawn) [Compound 198] | 0.13 | 0.1 to 1 | 83 | > 75 | 0.022 | ≤ 0.1
13 | CC(C)(C(=O)NCc1cc(Cl)c(C2CCC(=O)NC2=O)c(Cl)c1)c1ncoc1C(F)(F)F (stereo not drawn) [Compound 199] | 0.14 | 0.1 to 1 | 67 | 50 to 75 | 0.099 | ≤ 0.1
14 | CC(C)(C(=O)NCc1cc(Cl)c(C2CCC(=O)NC2=O)c(Cl)c1)c1nnc(C(F)F)o1 (stereo not drawn) [Compound 200] | 0.17 | 0.1 to 1 | 74 | 50 to 75 | 0.046 | ≤ 0.1
15 | Cc1conc1C(C)(C)C(=O)NCc1cc(Cl)c(C2CCC(=O)NC2=O)c(Cl)c1 (stereo not drawn) [Compound 201] | 0.14 | 0.1 to 1 | 93 | > 75 | 0.007 | ≤ 0.1
16 | CC(C)(O)c1ccc(C(C)(C)C(=O)NCc2cc(Cl)c(C3CCC(=O)NC3=O)c(Cl)c2)nn1 (stereo not drawn) [Compound 203] | 0.2 | 0.1 to 1 | 94 | > 75 | 0.004 | ≤ 0.1
17 | Cc1ccc(C(C)(C)C(=O)NCc2cc(Cl)c(C3CCC(=O)NC3=O)c(Cl)c2)cn1 (stereo not drawn) [Compound 205] | 0.11 | 0.1 to 1 | 97 | > 75 | 0.001 | ≤ 0.1
18 | CC(C)(C(=O)NCc1cc(Cl)c(C2CCC(=O)NC2=O)c(Cl)c1)c1cnc(CO)cn1 (stereo not drawn) [Compound 206] | 0.1 | 0.1 to 1 | 85 | > 75 | 0.018 | ≤ 0.1
19 | CC(C)(C(=O)NCc1cc(Cl)c(C2CCC(=O)NC2=O)c(Cl)c1)c1nnc(C(F)(F)F)o1 (stereo not drawn) [Compound 208] | 0.17 | 0.1 to 1 | 56 | 50 to 75 | 0.345 | 0.1 to 1
20 | CC(C)(C(=O)NCc1cc(Cl)c(C2CCC(=O)NC2=O)c(Cl)c1)c1ccc(OC(F)F)nn1 (stereo not drawn) [Compound 210] | 0.46 | 0.1 to 1 | 96 | > 75 | 0.002 | ≤ 0.1
21 | CC(C)(C(=O)NCc1cc(Cl)c(C2CCC(=O)NC2=O)c(Cl)c1)C1CCCCC1 (stereo not drawn) [Compound 211] | 0.9 | 0.1 to 1 | 90 | > 75 | 0.008 | ≤ 0.1
22 | CC(C)(C(=O)NCc1cc(Cl)c(C2CCC(=O)NC2=O)c(Cl)c1)c1nccc(CO)n1 (stereo not drawn) [Compound 215] | 0.12 | 0.1 to 1 | 65 | 50 to 75 | 0.118 | 0.1 to 1
23 | COc1nc(C(C)(C)C(=O)NCc2cc(Cl)c(C3CCC(=O)NC3=O)c(Cl)c2)ncc1C (stereo not drawn) [Compound 216] | 0.1 | ≤ 0.1 | 82 | > 75 | 0.021 | ≤ 0.1

Continued, values first:

Row | EC50 (CRBN-DDB1) [µM] | EC50 (CRBN-DDB1; HTRF class, Cereblon binding) [µM] | Dmax (NEK7; read-out: NEK7 NanoBiT Dmax) [%] | Dmax (NEK7; [1]) [%] | DC50 (NEK7; read-out: NEK7 NanoBiT DC50) [µM] | DC50 (NEK7; [2]) [µM] | Structure (SMILES)
24 | 0.05 | ≤ 0.1 | 60 | 50 to 75 | 0.116 | 0.1 to 1 | Cc1cncc(C(C)(C)C(=O)NCc2cc(Cl)c(C3CCC(=O)NC3=O)c(Cl)c2)n1 (stereo not drawn) [Compound 176]
25 | 0.09 | ≤ 0.1 | 65 | 50 to 75 | 0.09 | ≤ 0.1 | CC(C)(C(=O)NCc1cc(Cl)c(C2CCC(=O)NC2=O)c(Cl)c1)c1ncc(CC(F)F)cn1 (stereo not drawn) [Compound 186]
26 | 0.1 | 0.1 to 1 | 93 | > 75 | 0.004 | ≤ 0.1 | CC(F)(F)c1cnc(C(C)(C)C(=O)NCc2cc(Cl)c(C3CCC(=O)NC3=O)c(Cl)c2)nc1 (stereo not drawn) [Compound 187]
27 | 0.08 | ≤ 0.1 | 93 | > 75 | 0.004 | ≤ 0.1 | CC(C)(C(=O)NCc1cc(Cl)c(C2CCC(=O)NC2=O)c(Cl)c1)c1ncc(OC(F)F)cn1 (stereo not drawn) [Compound 188]
28 | 0.07 | ≤ 0.1 | 94 | > 75 | 0.004 | ≤ 0.1 | COc1cnc(C(C)(C)C(=O)NCc2cc(Cl)c(C3CCC(=O)NC3=O)c(Cl)c2)nc1 (stereo not drawn) [Compound 189]
29 | 0.09 | ≤ 0.1 | 90 | > 75 | 0.006 | ≤ 0.1 | CC(C)(C(=O)NCc1cc(Cl)c(C2CCC(=O)NC2=O)c(Cl)c1)c1cc2cccnc2cn1 (stereo not drawn) [Compound 190]
30 | 0.08 | ≤ 0.1 | 87 | > 75 | 0.01 | ≤ 0.1 | CC(C)(C(=O)NCc1cc(Cl)c(C2CCC(=O)NC2=O)c(Cl)c1)c1nc(C2CC2)co1 (stereo not drawn) [Compound 193]
31 | 0.08 | ≤ 0.1 | 98 | > 75 | 0.001 | ≤ 0.1 | COc1ccc(C(C)(C)C(=O)NCc2cc(Cl)c(C3CCC(=O)NC3=O)c(Cl)c2)nn1 (stereo not drawn) [Compound 204]
32 | 0.09 | ≤ 0.1 | 82 | > 75 | 0.019 | ≤ 0.1 | CC1(c2cnc(C(C)(C)C(=O)NCc3cc(Cl)c(C4CCC(=O)NC4=O)c(Cl)c3)nc2)CC1 (stereo not drawn) [Compound 207]
33 | 0.09 | ≤ 0.1 | 97 | > 75 | 0.001 | ≤ 0.1 | COc1cnc(C(C)(C)C(=O)NCc2cc(Cl)c(C3CCC(=O)NC3=O)c(Cl)c2)cn1 (stereo not drawn) [Compound 209]
34 | 0.07 | ≤ 0.1 | 90 | > 75 | 0.006 | ≤ 0.1 | Cc1nc(C(C)(C)C(=O)NCc2cc(Cl)c(C3CCC(=O)NC3=O)c(Cl)c2)oc1C (stereo not drawn) [Compound 212]
35 | 0.08 | ≤ 0.1 | 78 | > 75 | 0.033 | ≤ 0.1 | CC(C)(C(=O)NCc1cc(Cl)c(C2CCC(=O)NC2=O)c(Cl)c1)C1CCCC1 (stereo not drawn) [Compound 213]
